For 37 compounds, IC50 results are on record in patent US20260014133A1, “SUBSTITUTED 3-(l-OXOISOINDOLIN-2-YL)PIPERIDINE-2,6-DIONE/2-(2,6-DIOXOPIPERIDIN-3-YL)ISOINDOLINE-l,3-DIONE ANALOGS AS MODULATORS OF CEREBLON PROTEIN” (St. Jude's Chidren's Research Hospital, Inc., priority 2022, published 2026).

Each structure is given as a SMILES string.

For this test, the target named is 6×His-CRBN-DDB1 protein (Homo sapiens (Human), UniProt Q96SW2). Briefly: CRBN Fluorescence Polarization Assay. In kind it is binding. The following applies: competitive fluorescence polarization; Cy5-O-Len probe 30 nM, 6×His-CRBN-DDB1 200 nM; 1 hour at room temperature; mean of three independent determinations; read-out: CRBN FP (IC50). Here is the method: In this competitive fluorescent polarization assay Cy5 conjugated lenalidomide analog (Cy5-O-Len)^13 was used as a fluorescent probe. 6×His-CRBN-DDB1 protein (200 nM) and Cy5-O-Len probe (30 nM) were combined in 20 mM HEPES pH 7, 150 mM NaCl, 0.005% Tween-20 assay buffer. 20 μL of this assay cocktail was dispensed into wells of Corning 3821 black 384-well plates. Compounds were transferred to the assay plate from a dose-response plate using a Pintool on a Biomek FXP Laboratory Automation Workstation (Beckman Coulter). The plates were incubated in the dark for 1 hour at room temperature and then read on an Envision plate reader (PerkinElmer, Massachusetts, USA). IC50 values were determined using a proprietary software RISE (Robust Investigation of Screening Experiments), developed in house on the Pipeline Pilot platform (Biovia, v. 17.2.0). Data represent the mean of three independent determinations.
Chain of 6×His-CRBN-DDB1 protein (Q96SW2 whole entry): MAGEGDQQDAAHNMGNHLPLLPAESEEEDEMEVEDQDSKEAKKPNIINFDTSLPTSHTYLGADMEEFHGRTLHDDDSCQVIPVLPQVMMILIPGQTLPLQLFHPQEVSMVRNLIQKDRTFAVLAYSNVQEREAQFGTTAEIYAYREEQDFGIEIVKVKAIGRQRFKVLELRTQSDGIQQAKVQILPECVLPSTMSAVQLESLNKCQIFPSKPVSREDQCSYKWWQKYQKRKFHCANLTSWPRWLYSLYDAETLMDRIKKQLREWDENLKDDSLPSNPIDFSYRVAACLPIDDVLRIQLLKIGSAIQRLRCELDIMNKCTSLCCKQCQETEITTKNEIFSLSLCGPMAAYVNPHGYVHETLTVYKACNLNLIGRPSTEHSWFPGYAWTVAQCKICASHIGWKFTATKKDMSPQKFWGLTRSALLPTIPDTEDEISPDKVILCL
Chain of 6×His-CRBN-DDB1 protein (Q16531 whole entry partner): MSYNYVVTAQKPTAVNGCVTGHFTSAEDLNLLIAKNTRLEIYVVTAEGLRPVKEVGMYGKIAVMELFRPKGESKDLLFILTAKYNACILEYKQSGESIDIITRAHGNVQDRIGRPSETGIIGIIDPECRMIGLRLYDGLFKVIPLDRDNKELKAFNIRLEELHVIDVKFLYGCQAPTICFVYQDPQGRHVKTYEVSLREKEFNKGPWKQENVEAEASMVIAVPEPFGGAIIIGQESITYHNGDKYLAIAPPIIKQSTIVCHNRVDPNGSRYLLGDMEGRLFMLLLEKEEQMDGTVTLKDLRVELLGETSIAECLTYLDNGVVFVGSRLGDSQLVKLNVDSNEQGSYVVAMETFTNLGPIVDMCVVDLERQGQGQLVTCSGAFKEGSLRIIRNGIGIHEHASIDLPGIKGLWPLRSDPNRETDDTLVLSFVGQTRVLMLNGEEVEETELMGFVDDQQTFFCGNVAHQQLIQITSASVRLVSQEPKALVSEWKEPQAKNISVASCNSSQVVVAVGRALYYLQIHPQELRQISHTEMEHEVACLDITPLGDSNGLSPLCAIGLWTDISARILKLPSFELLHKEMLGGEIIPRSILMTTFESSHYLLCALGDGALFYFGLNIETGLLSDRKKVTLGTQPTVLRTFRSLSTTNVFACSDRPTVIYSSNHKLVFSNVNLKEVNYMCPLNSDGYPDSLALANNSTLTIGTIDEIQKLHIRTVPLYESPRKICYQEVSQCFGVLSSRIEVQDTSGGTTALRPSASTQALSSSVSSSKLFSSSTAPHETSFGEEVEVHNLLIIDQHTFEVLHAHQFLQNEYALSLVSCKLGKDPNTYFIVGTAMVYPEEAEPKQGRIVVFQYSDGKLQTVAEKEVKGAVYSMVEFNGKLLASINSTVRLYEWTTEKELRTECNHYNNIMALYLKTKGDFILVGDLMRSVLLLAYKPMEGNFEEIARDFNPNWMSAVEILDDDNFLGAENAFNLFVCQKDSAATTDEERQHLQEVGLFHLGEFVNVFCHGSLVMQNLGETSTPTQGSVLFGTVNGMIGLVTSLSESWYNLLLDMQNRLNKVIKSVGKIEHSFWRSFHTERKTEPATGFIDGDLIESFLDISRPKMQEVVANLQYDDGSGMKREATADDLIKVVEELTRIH
Cereblon binding activity was determined as described herein above, and the results are provided below in Table 2 for representative disclosed compounds. Compound number (“Cmpd No.”) refers to the compound number (and associated compound information such as structure, name, etc.) as provided in Table 1. In Table 2 below: cereblon binding IC50 values are categorized as follows: “A” represents IC50 value<1 μM, “B” represents IC50 value between 1 and 10 μM, and “C” represents IC50 value>10 μM.
For orientation: Fluorescence polarisation rises when a labelled molecule tumbles more slowly, as on binding a larger partner.
A word on the IC50: it is the concentration at which inhibition is half-maximal. Turning to `Cc1ccc(C(=O)Nc2ccc3c(c2)C(=O)N(C2CCC(=O)NC2=O)C3=O)cc1` (stereo not shown) [Compound 1, N-(2-(2,6-dioxopiperidin-3-yl)-1,3-dioxolsoindolin-5-yl)-4-methylbenzamide], the IC50 fell in the range of 1 to 10 µM.

On to `Cc1ccc(C(=O)Nc2ccc3c(c2)CN(C2CCC(=O)NC2=O)C3=O)cc1` (stereo not shown) [Compound 2, N-(2-(2,6-dioxopiperidin-3-yl)-1-oxoisoindolin-5-yl)-4-methylbenzamide], for which the IC50 was < 1 µM.

Turning to `Cc1cccc(C(=O)Nc2ccc3c(c2)CN(C2CCC(=O)NC2=O)C3=O)c1` (stereo not shown) [Compound 3, N-(2-(2,6-dioxopiperidin-3-yl)-1-oxoisoindolin-5-yl)-3-methylbenzamide], the IC50 lay within 1 to 10 µM.

In the case of `O=C1CCC(N2Cc3cc(NC(=O)c4ccccc4)ccc3C2=O)C(=O)N1` (stereo not shown) [Compound 4, N-(2-(2,6-dioxopiperidin-3-yl)-1-oxoisoindolin-5-yl)benzamide], the IC50 was < 1 µM.

For the compound `O=C1CCC(N2Cc3cc(NC(=O)c4ccc(F)cc4)ccc3C2=O)C(=O)N1` (stereo not shown) [Compound 5, N-(2-(2,6-dioxopiperidin-3-yl)-1-oxoisoindolin-5-yl)-4-fluorobenzamide], the IC50 was in the range of 1 to 10 µM.

As to `O=C1CCC(N2Cc3cc(NC(=O)c4cccnc4)ccc3C2=O)C(=O)N1` (stereo not shown) [Compound 6, N-(2-(2,6-dioxopiperidin-3-yl)-1-oxoisoindolin-5-yl)nicotinamide], the IC50 was 1 to 10 µM.

With `O=C1CCC(N2Cc3cc(NC(=O)c4ccncc4)ccc3C2=O)C(=O)N1` (stereo not shown) [Compound 7, N-(2-(2,6-dioxopiperidin-3-yl)-1-oxoisoindolin-5-yl)isonicotinamide], the IC50 was in the range of 1 to 10 µM.

As for `O=C1CCC(N2Cc3cc(NC(=O)c4cccc(F)c4)ccc3C2=O)C(=O)N1` (stereo not shown) [Compound 8, N-(2-(2,6-dioxopiperidin-3-yl)-1-oxoisoindolin-5-yl)-3-fluorobenzamide], the IC50 lay in the range of 1 to 10 µM.

For the compound `N#Cc1cccc(C(=O)Nc2ccc3c(c2)CN(C2CCC(=O)NC2=O)C3=O)c1` (stereo not shown) [Compound 9, 3-cyano-N-(2-(2,6-dioxopiperidin-3-yl)-1-oxoisoindolin-5-yl)benzamide], the IC50 is < 1 µM.

`O=C1CCC(N2Cc3cc(NC(=O)c4ccccc4C(F)(F)F)ccc3C2=O)C(=O)N1` (stereo not shown) [Compound 10, N-(2-(2,6-dioxopiperidin-3-yl)-1-oxoisoindolin-5-yl)-2-(trifluoromethyl)benzamide]: the IC50 was < 1 µM.

As for `COc1cccc(C(=O)Nc2ccc3c(c2)CN(C2CCC(=O)NC2=O)C3=O)c1` (stereo not shown) [Compound 11, N-(2-(2,6-dioxopiperidin-3-yl)-1-oxoisoindolin-5-yl)-3-methoxybenzamide], the IC50 is < 1 µM.

On to `O=C1CCC(N2Cc3cc(NC(=O)c4cccc(C(F)(F)F)c4)ccc3C2=O)C(=O)N1` (stereo not shown) [Compound 12, N-(2-(2,6-dioxopiperidin-3-yl)-1-oxoisoindolin-5-yl)-3-(trifluoromethyl)benzamide], for which the IC50 was < 1 µM.

On to `O=C1CCC(N2Cc3cc(NC(=O)c4ccc(Cl)cc4)ccc3C2=O)C(=O)N1` (stereo not shown) [Compound 13, 4-chloro-N-(2-(2,6-dioxopiperidin-3-yl)-1-oxoisoindolin-5-yl)benzamide], for which the IC50 is < 1 µM.

`O=C1CCC(N2Cc3cc(NC(=O)c4ccc(Cl)cc4)ccc3C2=O)C(=O)N1` (stereo not shown) [Compound 14, 4-chloro-N-(2-(2,6-dioxopiperidin-3-yl)-1-oxoisoindolin-5-yl)benzamide]: the IC50 fell in the range of 1 to 10 µM.

Consider `O=C1CCC(N2Cc3cc(NC(=O)c4ccc(C(F)(F)F)cc4)ccc3C2=O)C(=O)N1` (stereo not shown) [Compound 15, N-(2-(2,6-dioxopiperidin-3-yl)-1-oxoisoindolin-5-yl)-4-(trifluoromethyl)benzamide], for which the IC50 was < 1 µM.

Regarding `O=C1CCC(N2Cc3cc(C(=O)Nc4ccc(F)cc4)ccc3C2=O)C(=O)N1` (stereo not shown) [Compound 16, 2-(2,6-dioxopiperidin-3-yl)-N-(4-fluorophenyl)-1-oxoisoindoline-5-carboxamide], the half-maximal inhibitory concentration (IC50) is 1 to 10 µM.

Turning to `Cc1ccc(NC(=O)Nc2ccc3c(c2)CN(C2CCC(=O)NC2=O)C3=O)cc1` (stereo not shown) [Compound 17, 1-(2-(2,6-dioxopiperidin-3-yl)-1-oxoisoindolin-5-yl)-3-(p-tolyl)urea], the IC50 lay within 1 to 10 µM.

As for `CN(C(=O)c1ccccc1)c1ccc2c(c1)CN(C1CCC(=O)NC1=O)C2=O` (stereo not shown) [Compound 18, N-(2-(2,6-dioxopiperidin-3-yl)-1-oxoisoindolin-5-yl)-N-methylbenzamide], the IC50 lay within 1 to 10 µM.

On to `Cc1ccc2c(Nc3ccc4c(c3)CN(C3CCC(=O)NC3=O)C4=O)noc2c1` (stereo not shown) [Compound 19, 3-(5-((6-methylbenzo[d]isoxazol-3-yl)amino)-1-oxoisoindolin-2-yl)piperidine-2,6-dione], for which the IC50 is < 1 µM.

In the case of `Cc1ccc(C(=O)Nc2ccc3c(c2)CN(C2CCC(=O)NC2=O)C3=O)cn1` (stereo not shown) [Compound 20, N-(2-(2,6-dioxopiperidin-3-yl)-1-oxoisoindolin-5-yl)-6-methylnicotinamide], the concentration for half-maximal inhibition (IC50) was in the range of 1 to 10 µM.

Turning to `O=C1CCC(N2Cc3cc(NC(=O)c4ccc(-c5ccn[nH]5)cc4)ccc3C2=O)C(=O)N1` (stereo not shown) [Compound 21, N-(2-(2,6-dioxopiperidin-3-yl)-1-oxoisoindolin-5-yl)-4-(1H-pyrazol-5-yl)benzamide], the IC50 was 1 to 10 µM.

Regarding `CC(C)(O)c1ccc(C(=O)Nc2ccc3c(c2)CN(C2CCC(=O)NC2=O)C3=O)cc1` (stereo not shown) [Compound 22, N-(2-(2,6-dioxopiperidin-3-yl)-1-oxoisoindolin-5-yl)-4-(2-hydroxypropan-2-yl)benzamide], the IC50 fell in the range of 1 to 10 µM.

As to `O=C1CCC(N2Cc3cc(NC(=O)c4ccccc4Oc4ccccc4)ccc3C2=O)C(=O)N1` (stereo not shown) [Compound 23, N-(2-(2,6-dioxopiperidin-3-yl)-1-oxoisoindolin-5-yl)-2-phenoxybenzamide], the IC50 is < 1 µM.

As for `O=C1CCC(N2Cc3cc(NC(=O)Cc4ccc(O)cc4)ccc3C2=O)C(=O)N1` (stereo not shown) [Compound 24, N-(2-(2,6-dioxopiperidin-3-yl)-1-oxoisoindolin-5-yl)-2-(4-hydroxyphenyl)acetamide], the IC50 was < 1 µM.

With `O=C1CCC(N2Cc3cc(NC(=O)Cc4ccccc4Br)ccc3C2=O)C(=O)N1` (stereo not shown) [Compound 25, 2-(2-bromophenyl)-N-(2-(2,6-dioxopiperidin-3-yl)-1-oxoisoindolin-5-yl)acetamide], the IC50 is < 1 µM.

On to `O=C1CCC(N2Cc3cc(NC(=O)c4[nH]c5ccccc5c4Cl)ccc3C2=O)C(=O)N1` (stereo not shown) [Compound 26, 3-chloro-N-(2-(2,6-dioxopiperidin-3-yl)-1-oxoisoindolin-5-yl)-1H-indole-2-carboxamide], for which the half-maximal inhibitory concentration (IC50) is > 10 µM.

Consider `O=C1CCC(N2Cc3cc(NC(=O)c4ccc5nc[nH]c5c4)ccc3C2=O)C(=O)N1` (stereo not shown) [Compound 27, N-(2-(2,6-dioxopiperidin-3-yl)-1-oxoisoindolin-5-yl)-1H-benzo[d]imidazole-6-carboxamide], for which the IC50 was < 1 µM.

Turning to `CC(N)c1ccc(C(=O)Nc2ccc3c(c2)CN(C2CCC(=O)NC2=O)C3=O)cc1` (stereo not shown) [Compound 29, 4-(1-aminoethyl)-N-(2-(2,6-dioxopiperidin-3-yl)-1-oxoisoindolin-5-yl)benzamide], the IC50 was in the range of 1 to 10 µM.

As for `NC1(c2ccc(C(=O)Nc3ccc4c(c3)CN(C3CCC(=O)NC3=O)C4=O)cc2)CCC1` (stereo not shown) [Compound 30, 4-(1-aminocyclobutyl)-N-(2-(2,6-dioxopiperidin-3-yl)-1-oxoisoindolin-5-yl)benzamide], the IC50 was 1 to 10 µM.

For the compound `CN1CCN(Cc2ccc(C(=O)Nc3ccc4c(c3)CN(C3CCC(=O)NC3=O)C4=O)cc2)CC1` (stereo not shown) [Compound 31], the IC50 was 1 to 10 µM.

With `O=C1CCC(N2Cc3cc(NC(=O)c4ccc(CN5CCOCC5)cc4)ccc3C2=O)C(=O)N1` (stereo not shown) [Compound 32, N-(2-(2,6-dioxopiperidin-3-yl)-1-oxoisoindolin-5-yl)-4-(morpholinomethyl)benzamide], the 50% inhibitory concentration (IC50) was 1 to 10 µM.

Regarding `Cc1ccccc1C(=O)Nc1ccc2c(c1)CN(C1CCC(=O)NC1=O)C2=O` (stereo not shown) [Compound 33, N-(2-(2,6-dioxopiperidin-3-yl)-1-oxoisoindolin-5-yl)-2-methylbenzamide], the half-inhibitory concentration (IC50) is 1 to 10 µM.

Take `COc1ccccc1C(=O)Nc1ccc2c(c1)CN(C1CCC(=O)NC1=O)C2=O` (stereo not shown) [Compound 34, N-(2-(2,6-dioxopiperidin-3-yl)-1-oxoisoindolin-5-yl)-2-methoxybenzamide]: the IC50 is 1 to 10 µM.

For the compound `Cc1cccc(C(=O)Nc2ccc3c(c2)CN(C2CCC(=O)NC2=O)C3=O)n1` (stereo not shown) [Compound 35, N-(2-(2,6-dioxopiperidin-3-yl)-1-oxoisoindolin-5-yl)-6-methylpicolinamide], the 50% inhibitory concentration (IC50) is 1 to 10 µM.

For `Cc1ccc(C(=O)Nc2ccc3c(c2)CN(C2CCC(=O)NC2=O)C3=O)nc1` (stereo not shown) [Compound 36, N-(2-(2,6-dioxopiperidin-3-yl)-1-oxoisoindolin-5-yl)-5-methylpicolinamide], the IC50 is < 1 µM.

Turning to `O=C1CCC(N2Cc3cc(NC(=O)c4ccccc4F)ccc3C2=O)C(=O)N1` (stereo not shown) [Compound 37, N-(2-(2,6-dioxopiperidin-3-yl)-1-oxoisoindolin-5-yl)-2-fluorobenzamide], the IC50 is 1 to 10 µM.

Turning to `O=C1CCC(N2Cc3cc(Nc4noc5ccccc45)ccc3C2=O)C(=O)N1` (stereo not shown) [Compound 38, 3-(5-(benzo[d]isoxazol-3-ylamino)-1-oxoisoindolin-2-yl)piperidine-2,6-dione], the IC50 was < 1 µM.
